In general, IC50 refers to the concentration at which inhibition is half-maximal. A lower IC50 goes with higher potency.

The test concerns the target Delta-type opioid receptor (Mus musculus) (UniProt P32300). The test can be described thus: Ability to induce 50% of maximal effect in mouse vas deferens expressing Opioid receptor delta 1.

Structures are written as SMILES.

Sequence of Delta-type opioid receptor (Mus musculus) (P32300 whole entry, looked up): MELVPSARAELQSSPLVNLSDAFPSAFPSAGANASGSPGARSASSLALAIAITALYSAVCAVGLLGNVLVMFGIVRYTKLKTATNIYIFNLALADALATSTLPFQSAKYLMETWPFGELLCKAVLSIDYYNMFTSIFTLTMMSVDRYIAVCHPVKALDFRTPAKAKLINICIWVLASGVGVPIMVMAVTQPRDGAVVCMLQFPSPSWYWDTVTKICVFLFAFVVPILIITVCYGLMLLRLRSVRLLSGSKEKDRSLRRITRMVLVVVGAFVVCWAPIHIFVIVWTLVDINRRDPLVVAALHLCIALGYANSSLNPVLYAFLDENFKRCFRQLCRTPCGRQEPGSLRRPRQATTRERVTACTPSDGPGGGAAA

With `CC1C2Cc3ccc(O)cc3C1(C)CCN2CCc1ccccc1` (stereo unspecified), the IC50 amounted to 8 nM.

Source of the values: BindingDB's records for doi:10.1021/jm00365a017 (1983).
